A word on the EC50: it is the concentration at which the effect is half-maximal. What is called Kd is the free concentration of one partner at which half of the binding sites on the other are occupied at equilibrium, for simple one-to-one binding.

Structures are written as SMILES. Read-outs that look alike come from different tables or passages of the source.

These results are taken from PMC9823934, “New Class of Benzodiazepinone Derivatives as Pro-Death Agents Targeting BIR Domains in Cancer Cells” (Molecules, 2023).

One experiment concerns MDA-MB-231 cells. The experiment can be described thus: Cell viability assay (PrestoBlue) in MDA-MB-231, with or without TNF. The class given is cell-based, human. Particulars: 48 h treatment. The procedure:
MDA-MB-231 cells (human breast adenocarcinoma cell line) were grown in standard conditions (37 °C, 5% CO2) in RPMI medium supplemented with 10% serum, 1 mg·mL^−1 penicillin, 100 μg·mL^−1 streptomycin and 2 mM l-glutamine. Cell viability was evaluated by using PrestoBlue^TM Cell Viability Reagent (Thermo Fisher Scientific, Rodano, Italy). Resazurin, the active nontoxic and non-fluorescent ingredient, is continuously converted in resorufin, a red fluorescent compound, in viable cells. Cells were seeded on black-wall, clear bottom 96-well microplates at a density of 50,000 cells/well. After 24 h, cells were treated with the FC2 derivatives from 1.5 μM to 100 μM (vehicle, DMSO) in the absence or presence of TNF at the concentration of 50 ng/mL. After 48 h, the fluorescence was determined using a fluorescence plate reader (Tristar2 S, Berthold Technologies, Bad Wildbad, Germany) equipped with 560 nm excitation and 585 nm emission filters. At least five replicates were performed for each condition. The EC50, was calculated plotting the percentage of cell survival against the compound concentration (A) and fitting the data with: % survival=Tmax−TminA/A+EC50+Tmin where Tmax and Tmin are the maximum and minimum effect induced by the compounds. Analysis was performed with IgorPro 8.04 software (Lake Oswego, OR, USA).

The next experiment addresses XIAP-BIR1 (Homo sapiens, UniProt P98170). The experiment can be described thus: Trp fluorescence binding assay on XIAP-BIR1.
For a further experiment, the target named is cIAP2-BIR1 (Homo sapiens, UniProt Q13489). Description: Trp fluorescence binding assay on cIAP2-BIR1.
The mark [1] stands for this setting: Homo sapiens, MDA-MB-231, 48 h, MDA-MB-231, in combination with 50 ng/mL TNF, read-out: EC50 (+TNF).
Where [2] appears, read: Homo sapiens, MDA-MB-231, 48 h, MDA-MB-231, single agent, read-out: EC50.
Setting [3] is: read-out: Kd (XIAP-BIR1), Trp fluorescence titration, 23 °C, pH 8.0.
Where [4] appears, read: read-out: Kd (cIAP2-BIR1), Trp fluorescence titration, 23 °C, pH 8.0.
Setting [5] is: Homo sapiens, MDA-MB-231, in combination with 50 ng/mL TNF, read-out: EC50 (+TNF).
The mark [6] stands for this setting: Homo sapiens, MDA-MB-231, single agent, read-out: EC50.

cIAP2-BIR1, sequence (Q13489 26-99 limits assumed): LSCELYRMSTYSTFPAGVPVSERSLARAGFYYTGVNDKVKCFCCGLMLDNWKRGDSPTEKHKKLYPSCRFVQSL
XIAP-BIR1, sequence (P98170 10-99 limits assumed): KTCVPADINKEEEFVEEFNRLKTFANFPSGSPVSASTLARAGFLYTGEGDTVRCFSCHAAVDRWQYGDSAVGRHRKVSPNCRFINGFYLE
Method for XIAP-BIR1: (§1) The binding of FC2 derivatives to the BIR1 domains was assessed by in vitro fluorimetric assays.
(§2) The fluorescence intensity emitted by XIAP-BIR1 Trp73 or cIAP2-BIR1 Trp76 was measured by varying the concentration of the different ligands. The tests were performed with a spectral fluorimeter (Varian Cary Eclipse Fluorescence Spectrophotometer, Agilent Technologies), recording the fluorescence emission spectra between 300 and 400 nm (excitation 280 nm). XIAP-/ cIAP2-BIR1 protein samples were concentrated at 5 μM.
(§3) All the analyses were performed with GraFit version 5 (Erithacus Software Ltd., Horley, UK).
Method for cIAP2-BIR1: as §1, §2, §3

As for `COc1cccc(C2Nc3ccc(C(=O)c4ccccc4)cc3NC3=C2C(=O)CCC3)c1` (centres unmarked) [4k], the EC50 came out at 13 ± 4.15 µM in the experiment on MDA-MB-231 cells (setting [1]) and 10.3 ± 4.63 µM in the experiment on MDA-MB-231 cells (setting [2]). Also, the Kd at XIAP-BIR1 (setting [3]) and on cIAP2-BIR1 (setting [4]) was more than 50 µM in each case.

`O=C1CCCC2=C1C(c1ccc(Cl)cc1)Nc1ccc(C(=O)c3ccccc3)cc1N2` (centres unmarked) [4i]: the EC50 in the experiment with MDA-MB-231 cells (setting [1]) was determined as 22.2 ± 6.67 µM; in the experiment on MDA-MB-231 cells (setting [2]), 25.9 ± 7.03 µM. Moreover, the Kd at XIAP-BIR1 and at cIAP2-BIR1 was more than 50 µM throughout.

For the molecule `O=C1CCCC2=C1C(c1cccc(O)c1)Nc1ccc(C(=O)c3ccccc3)cc1N2` (centres unmarked) [4l], the results for the EC50 in the experiment on MDA-MB-231 cells (setting [1]) and in the experiment on MDA-MB-231 cells (setting [2]) were 16.1 ± 3.7 µM and 18.6 ± 2.56 µM, respectively. Also, the Kd at XIAP-BIR1 came out at 22 ± 1.18 µM; at cIAP2-BIR1, 38.6 ± 3.56 µM.

For the molecule `O=C1CCCC2=C1C(c1cccs1)Nc1ccc(C(=O)c3ccccc3)cc1N2` (centres unmarked) [4b, 7-benzoyl-11-(thiophen-2-yl)-2,3,4,5,10,11-hexahydro-1H-dibenzo[b,e][1,4]diazepin-1-one], the EC50 in the experiment with MDA-MB-231 cells (setting [1]) was determined as 9.2 ± 5.75 µM; with MDA-MB-231 cells (setting [2]), 21.9 ± 8.17 µM. Also, the Kd came to 30 ± 7.47 µM at XIAP-BIR1 and 46.3 ± 24.8 µM on cIAP2-BIR1.

For the molecule `COc1ccc(C2Nc3ccc(C(=O)c4ccccc4)cc3NC3=C2C(=O)CCC3)cc1OC` (centres unmarked) [4o], the results for the EC50 in the experiment on MDA-MB-231 cells (setting [1]) and in the experiment on MDA-MB-231 cells (setting [2]) were 15.4 ± 6.86 µM and 13.5 ± 4.67 µM, respectively. The Kd on XIAP-BIR1 is 7.5 ± 2.9 µM; at cIAP2-BIR1, 12 ± 2.4 µM.

For `O=C1CCCC2=C1C(c1ccc(C(F)(F)F)cc1)Nc1ccc(C(=O)c3ccccc3)cc1N2` (centres unmarked) [4h], the results for the EC50 in the experiment with MDA-MB-231 cells (setting [1]) and in the experiment with MDA-MB-231 cells (setting [2]) were 48.8 ± 5.72 µM and 22.3 ± 8.67 µM, respectively. The Kd on XIAP-BIR1 was determined as 14.9 ± 3.8 µM; at cIAP2-BIR1, 43.4 ± 13.9 µM.

Consider `O=C1CCCC2=C1C(c1ccc3c(c1)OC(F)(F)O3)Nc1ccc(C(=O)c3ccccc3)cc1N2` (centres unmarked) [4q], for which the figures for the EC50 with MDA-MB-231 cells (setting [5]) and in the experiment with MDA-MB-231 cells (setting [6]) were 14 ± 2.4 µM and 14.7 ± 4.98 µM, respectively. Also, the Kd amounted to 41.8 ± 11.7 µM at XIAP-BIR1 and 16.4 ± 2.9 µM at cIAP2-BIR1.

For the molecule `O=C1CCCC2=C1C(c1c[nH]c3ccccc13)Nc1ccc(C(=O)c3ccccc3)cc1N2` (centres unmarked) [FC2, 7-benzoyl-11-(1H-indol-3-yl)-2,3,4,5,10,11-hexahydro-1H-dibenzo[b,e][1,4]diazepin-1-one], the EC50 with MDA-MB-231 cells (setting [5]) turned out to be 9.08 ± 1.85 µM; in the experiment with MDA-MB-231 cells (setting [6]) it was 11.4 ± 2.08 µM.

Take `Cc1ccc(C2Nc3ccc(C(=O)c4ccccc4)cc3NC3=C2C(=O)CCC3)o1` (centres unmarked) [4c, 7-benzoyl-11-(5-methylfuran-2-yl)-2,3,4,5,10,11-hexahydro-1H-dibenzo[b,e][1,4]diazepin-1-one]: the concentration giving a half-maximal response (EC50) is 45.3 ± 3.75 µM in the experiment on MDA-MB-231 cells (setting [1]); 65 µM in the experiment on MDA-MB-231 cells (setting [2]); 65.1 ± 2.43 µM in the experiment with MDA-MB-231 cells (MDA-MB-231, single agent, read-out: EC50). Also, the Kd on XIAP-BIR1 and at cIAP2-BIR1 was more than 50 µM in each case.

As for `COc1cccc(C2Nc3ccc(C(=O)c4ccccc4)cc3NC3=C2C(=O)CCC3)c1O` (centres unmarked) [4t], the EC50 entry in the experiment with MDA-MB-231 cells (MDA-MB-231, single agent) is given as “without activity”. Further, the Kd at XIAP-BIR1 and on cIAP2-BIR1 was more than 50 µM throughout.

Turning to `Cc1ccc(C2Nc3ccc(C(=O)c4ccccc4)cc3NC3=C2C(=O)CCC3)cc1` (centres unmarked) [4e, 7-benzoyl-11-(p-tolyl)-2,3,4,5,10,11-hexahydro-1H-dibenzo[b,e][1,4]diazepin-1-one], the values for the EC50 in the experiment with MDA-MB-231 cells (setting [1]) and with MDA-MB-231 cells (setting [2]) were 47.9 ± 9.7 µM and 38.9 ± 7.55 µM, respectively. In addition, the values for the Kd on XIAP-BIR1 and at cIAP2-BIR1 were more than 50 µM and 27.6 ± 7.3 µM, respectively.

Turning to `COc1cc(C2Nc3ccc(C(=O)c4ccccc4)cc3NC3=C2C(=O)CCC3)cc([N+](=O)[O-])c1O` (centres unmarked) [4v], the EC50 in the experiment with MDA-MB-231 cells (setting [5]) was determined as 26.8 ± 12.5 µM; in the experiment on MDA-MB-231 cells (setting [6]) it was 31.4 ± 11.4 µM. Also, the Kd at XIAP-BIR1 turned out to be 46.4 ± 5.31 µM; on cIAP2-BIR1, 38 ± 2.78 µM.

Take `O=C1CCCC2=C1C(c1ccc(O)cc1)Nc1ccc(C(=O)c3ccccc3)cc1N2` (centres unmarked) [4j]: the EC50 amounted to 59.7 ± 14.8 µM in the experiment on MDA-MB-231 cells (setting [1]) and 48.2 ± 15.1 µM in the experiment with MDA-MB-231 cells (setting [2]). The Kd turned out to be 7.26 ± 0.98 µM on XIAP-BIR1 (setting [3]) and 27.6 ± 3.16 µM at cIAP2-BIR1 (setting [4]).

On to `CC1(C)CC(=O)C2=C(C1)Nc1cc(C(=O)c3ccccc3)ccc1NC2c1c[nH]c2ccccc12` (centres unmarked) [4a, 7-benzoyl-11-(1H-indol-3-yl)-3,3-dimethyl-2,3,4,5,10,11-hexahydro-1H-dibenzo[b,e][1,4]diazepin-1-one], for which the EC50 in the experiment on MDA-MB-231 cells (setting [1]) stood at 16.9 ± 7.14 µM; in the experiment with MDA-MB-231 cells (setting [2]), 42.8 ± 10.1 µM. Besides, the Kd at XIAP-BIR1 worked out at 6.8 ± 1.3 µM; on cIAP2-BIR1, 1.3 ± 0.7 µM.

Turning to `COc1cc(C2Nc3ccc(C(=O)c4ccccc4)cc3NC3=C2C(=O)CCC3)ccc1O` (centres unmarked) [4r], the EC50 worked out at 12.8 ± 1.9 µM with MDA-MB-231 cells (setting [5]) and 7.49 ± 1.65 µM in the experiment on MDA-MB-231 cells (setting [6]). Also, the Kd on XIAP-BIR1 worked out at 33.1 ± 1.4 µM; at cIAP2-BIR1 it was 46 ± 8.33 µM.

As for `COc1ccc(C2Nc3ccc(C(=O)c4ccccc4)cc3NC3=C2C(=O)CCC3)cc1` (centres unmarked) [4g], the EC50 is 36.3 ± 10.4 µM in the experiment on MDA-MB-231 cells (setting [1]) and 67.2 ± 7.6 µM in the experiment with MDA-MB-231 cells (setting [2]). The molecule also displayed a Kd at XIAP-BIR1 of 18 ± 5.4 µM.

As to `Nc1cccc(C2Nc3ccc(C(=O)c4ccccc4)cc3NC3=C2C(=O)CCC3)c1` (centres unmarked) [4n], the EC50 entry with MDA-MB-231 cells (MDA-MB-231, single agent) is reported as “loss of activity”. Also, the values for the Kd at XIAP-BIR1 and on cIAP2-BIR1 were 38.1 ± 1.68 µM and 26.5 ± 1.07 µM, respectively.

In the case of `COc1ccc(C2Nc3ccc(C(=O)c4ccccc4)cc3NC3=C2C(=O)CCC3)cc1O` (centres unmarked) [4s], the EC50 in the experiment with MDA-MB-231 cells (setting [5]) is 14.6 ± 1.74 µM; in the experiment on MDA-MB-231 cells (setting [6]) it was 15.2 ± 3.63 µM. In addition, the Kd on XIAP-BIR1 and on cIAP2-BIR1 was more than 50 µM in each case.

With `O=C1CCCC2=C1C(c1ccc(O)c(O)c1)Nc1ccc(C(=O)c3ccccc3)cc1N2` (centres unmarked) [4p], the concentration giving a half-maximal response (EC50) with MDA-MB-231 cells (setting [1]) is 9.5 ± 4.73 µM; in the experiment on MDA-MB-231 cells (setting [2]) it was 6.92 ± 2.43 µM. Also, the results for the Kd on XIAP-BIR1 and on cIAP2-BIR1 were 15.9 ± 5.2 µM and 26.9 ± 4.3 µM, respectively.

Regarding `O=C1CCCC2=C1C(c1ccc(O)c([N+](=O)[O-])c1)Nc1ccc(C(=O)c3ccccc3)cc1N2` (centres unmarked) [4u], the EC50 with MDA-MB-231 cells (setting [5]) is 9.53 ± 3.61 µM; with MDA-MB-231 cells (setting [6]), 17 ± 5.4 µM. Further, the values for the Kd on XIAP-BIR1 (setting [3]) and on cIAP2-BIR1 (setting [4]) were 37.3 ± 4.45 µM and more than 50 µM, respectively.

Consider `O=C1CCCC2=C1C(c1cccc([N+](=O)[O-])c1)Nc1ccc(C(=O)c3ccccc3)cc1N2` (centres unmarked) [4m], for which the EC50 was found to be 3.82 ± 1.41 µM in the experiment with MDA-MB-231 cells (setting [5]) and 5.54 ± 1.03 µM in the experiment with MDA-MB-231 cells (setting [6]). Besides, binding at cIAP2-BIR1 was characterised by a dissociation constant (Kd) of 20.5 ± 4 µM.

`O=C1CCCC2=C1C(c1ccccc1)Nc1ccc(C(=O)c3ccccc3)cc1N2` (centres unmarked) [4d, 7-benzoyl-11-phenyl-2,3,4,5,10,11-hexahydro-1H-dibenzo[b,e][1,4]diazepin-1-one]: the EC50 was found to be 69.2 ± 8.1 µM in the experiment on MDA-MB-231 cells (setting [1]) and 19.6 ± 4.23 µM in the experiment on MDA-MB-231 cells (setting [2]). The values for the Kd on XIAP-BIR1 and on cIAP2-BIR1 were 4.4 ± 2.2 µM and 21.9 ± 6.2 µM, respectively.
